Reference: patent publication US11661396B2, “Crystalline forms of zuclomiphene citrate” (Apotex Inc., priority 2020, dated 2023)
Where a name gives a salt, the structure may show the parent alone.

Tests used:
[1] = PXRD studies of capped and uncapped samples maintained in a 40° C./75% RH stability chamber; type: physicochemical
Method: Zuclomiphene citrate Form APO-1 can be characterized by a PXRD diffractogram comprising, among other peaks, characteristic peaks, expressed in degrees 2θ (±0.2°), at 8.8°, 9.6° and 11.7°. Preferably, the PXRD diffractogram further comprises at least three peaks, expressed in degrees 2θ (±0.2°), selected from the group consisting of 10.9°, 12.4°, 14.7°, 14.9°, 17.3°, 17.8°, 18.6°, 19.9°, 20.5°, 23.6° and 25.4°. More preferably, the PXRD diffractogram further comprises peaks, expressed in degrees 2θ (±) 0.2°, at 10.9°, 12.4°, 14.7°, 14.9°, 17.3°, 17.8°, 18.6°, 19.9°, 20.5°, 23.6° and 25.4°.
Zuclomiphene citrate Form APO-III can be characterized by a PXRD diffractogram comprising, among other peaks, characteristic peaks, expressed in degrees 2θ (±0.2°), at 8.7°, 9.8° and 10.5°. Preferably, the PXRD diffractogram further comprises at least three peaks, expressed in degrees 2θ (±0.2°), selected from the group consisting of 11.6°, 12.3°, 15.3°, 16.9°, 18.0°, 18.6°, 19.4°, 20.4°, 21.0° and 24.5°. More preferably, the PXRD diffractogram further comprises peaks, expressed in degrees 2θ (±0.2°), at 11.6°, 12.3°, 15.3°, 16.9°, 18.0°, 18.6°, 19.4°, 20.4°, 21.0° and 24.5°. […]
PXRD diffractograms were recorded on a Bruker D8 Discover powder X-ray diffractometer (Bruker-AXS, Karlsruhe, Germany). […] Raw data were evaluated using the program EVA (Bruker-AXS, Karlsruhe, Germany).

[2] = Thermodynamic stability of the crystalline form; type: physicochemical
Excerpt: Zuclomiphene citrate Form APO-IV can be prepared by gradual addition of a solution of citric acid in a suitable solvent, preferably an alcohol or ketone solvent such as methanol or acetone, to a solution of zuclomiphene free base in a suitable solvent, preferably an alcohol solvent such as 2-methyl-1-propanol or 1-butanol, more preferably an ester solvent, such as ethyl acetate. Preferably, the solution of zuclomiphene free base is heated to an elevated temperature prior to addition of the citric acid solution, preferably in the range of about 50° C. to about 70° C. Following addition, the resulting mixture is preferably charged with Form APO-IV seeds and maintained at elevated temperature for a time (′aged), preferably in the range of about 16 hours to about 4 days, more preferably in the range of about 16 hours to about 48 hours. Following aging, the resulting mixture is preferably cooled to a temperature in the range of about 0° C. to about 35° C., most preferably room temperature, prior to isolation of the solid by filtration and drying, if necessary. Drying can be conducted in vacuo, preferably at a temperature in the range of about 50° C. to about 70° C., preferably for about 18 hours to about 3 days.

[3] = tested on: hot flashes in men with prostate cancer on androgen deprivation therapy; details: 50 mg zuclomiphene citrate, interim Phase 2 clinical trial results; cited from earlier work

SMILES: CCN(CC)CCOc1ccc(/C(=C(\Cl)c2ccccc2)c2ccccc2)cc1 [Form APO-I, zuclomiphene citrate]
- change in the crystalline form (PXRD) ([1]; at least 4 weeks): no change in the crystalline form occurred

SMILES: CCN(CC)CCOc1ccc(/C(=C(\Cl)c2ccccc2)c2ccccc2)cc1 [Form APO-III, zuclomiphene citrate]
- change in the crystalline form (PXRD) ([1]; at least 8 weeks): no change in the crystalline form occurred

SMILES: CCN(CC)CCOc1ccc(/C(=C(\Cl)c2ccccc2)c2ccccc2)cc1 [Form APO-IV, zuclomiphene citrate]
- thermodynamic stability [2]: thermodynamically stable

SMILES: CCN(CC)CCOc1ccc(/C(=C(\Cl)c2ccccc2)c2ccccc2)cc1 [zuclomiphene citrate, 2-[4-[(Z)-2-chloro-1,2-diphenylethenyl]phenoxy]-N,N-diethylethanamine]
- decrease in moderate to severe hot flashes from baseline [3]: statistically significant decrease
